Measurements as given in PubChem BioAssay AID1963832 (Molecular Pharmacology Branch, DTP, NCI, 2024).

System: 885724-159-R-J1-PDC complex spheroid viability
Assay: Anticancer human tumor 885724-159-R-J1-PDC patient-derived pancreatic adenocarcinoma cell line growth inhibition [POLQ]
Details: for IC50: curve of first compound; for viability, T/C: stronger effect = lower value
Outline: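 Three-cell-type spheroids modelling solid tumor plus stroma served as the readout system; POL inhibitors were tested individually and in combination, concentration ranges set by clinical Cmax where known.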

[1] = second compound 0.0316 µM, first compound 0.0316 µM
[2] = second compound 0.0316 µM, first compound 0.1 µM
[3] = second compound 0.0316 µM, first compound 0.316 µM
[4] = second compound 0.0316 µM, first compound 1 µM
[5] = second compound 0.0316 µM, first compound 3.16 µM
[6] = second compound 0.0316 µM, first compound 10 µM
[7] = second compound 0.1 µM, first compound 0.0316 µM
[8] = second compound 0.1 µM, first compound 0.1 µM
[9] = second compound 0.1 µM, first compound 0.316 µM
[10] = second compound 0.1 µM, first compound 1 µM
[11] = second compound 0.1 µM, first compound 3.16 µM
[12] = second compound 0.1 µM, first compound 10 µM
[13] = second compound 0.316 µM, first compound 0.0316 µM
[14] = second compound 0.316 µM, first compound 0.1 µM
[15] = second compound 0.316 µM, first compound 0.316 µM
[16] = second compound 0.316 µM, first compound 1 µM
[17] = second compound 0.316 µM, first compound 3.16 µM
[18] = second compound 0.316 µM, first compound 10 µM
[19] = second compound 1 µM, first compound 0.0316 µM
[20] = second compound 1 µM, first compound 0.1 µM
[21] = second compound 1 µM, first compound 0.316 µM
[22] = second compound 1 µM, first compound 1 µM
[23] = second compound 1 µM, first compound 3.16 µM
[24] = second compound 1 µM, first compound 10 µM
[25] = second compound 3.16 µM, first compound 0.0316 µM
[26] = second compound 3.16 µM, first compound 0.1 µM
[27] = second compound 3.16 µM, first compound 0.316 µM
[28] = second compound 3.16 µM, first compound 1 µM
[29] = second compound 3.16 µM, first compound 3.16 µM
[30] = second compound 3.16 µM, first compound 10 µM
[31] = second compound 10 µM, first compound 0.0316 µM
[32] = second compound 10 µM, first compound 0.1 µM
[33] = second compound 10 µM, first compound 0.316 µM
[34] = second compound 10 µM, first compound 1 µM
[35] = second compound 10 µM, first compound 3.16 µM
[36] = second compound 10 µM, first compound 10 µM
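Further: spheroids exposed to compounds for 7 days.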

In the case of `CNCc1ccc(-c2[nH]c3cc(F)cc4c3c2CCNC4=O)cc1` + Cc1cccc(N(C)C(=O)C2C(O)CCN2c2nc(C)cc(C(F)(F)F)c2C#N)c1, the IC50 (second compound 0.0316 µM) is reported as > 10 µM, the IC50 (second compound 0.1 µM) is reported as > 10 µM and the IC50 (second compound 0.316 µM) is reported as > 10 µM. The IC50 (second compound 1 µM) was > 10 µM, the IC50 (second compound 3.16 µM) was > 10 µM and the IC50 (second compound 10 µM) was > 10 µM. It also gave a viability, T/C [1] of 92.2%, a viability, T/C [2] of 102% and a viability, T/C [3] of 98.2%. The viability, T/C [4] was 89.2%, the viability, T/C [5] was 90.3% and the viability, T/C [6] was 83.9%. It also gave a viability, T/C [7] of 104%, a viability, T/C [8] of 104% and a viability, T/C [9] of 91.1%. For the same compound, the viability, T/C [10] was 92.7%, the viability, T/C [11] was 93.3% and the viability, T/C [12] was 83.2%. The viability, T/C [13] was 104%, the viability, T/C [14] was 94.1% and the viability, T/C [15] was 102%. For the same compound, the viability, T/C [16] was 87.9%, the viability, T/C [17] was 92% and the viability, T/C [18] was 88.5%. It also gave a viability, T/C [19] of 92.2%, a viability, T/C [20] of 89.5% and a viability, T/C [21] of 88.7%. For the same compound, the viability, T/C [22] was 113%, the viability, T/C [23] was 91% and the viability, T/C [24] was 86.3%. The viability, T/C [25] was 102%, the viability, T/C [26] was 90.8% and the viability, T/C [27] was 97.5%. It also gave a viability, T/C [28] of 96.3%, a viability, T/C [29] of 92.5% and a viability, T/C [30] of 85.2%. It also gave a viability, T/C [31] of 97%, a viability, T/C [32] of 103% and a viability, T/C [33] of 85.2%. It also gave a viability, T/C [34] of 88%, a viability, T/C [35] of 86.1% and a viability, T/C [36] of 88.5%.

`COc1cccc(OCCCN)c1-c1cc(Nc2cnc(C#N)cn2)n[nH]1` + Cc1cccc(N(C)C(=O)C2C(O)CCN2c2nc(C)cc(C(F)(F)F)c2C#N)c1 showed an IC50 (second compound 0.0316 µM) of 0.0106 µM, an IC50 (second compound 0.1 µM) of 0.0207 µM and an IC50 (second compound 0.316 µM) of 0.0106 µM. For the same compound, the IC50 (second compound 1 µM) was 0.00908 µM, the IC50 (second compound 3.16 µM) was 0.00891 µM and the IC50 (second compound 10 µM) was 0.00902 µM. For the same compound, the viability, T/C (second compound 0.0316 µM, first compound 0.00316 µM) was 71.8%, the viability, T/C (second compound 0.0316 µM, first compound 0.01 µM) was 51.3% and the viability, T/C [1] was 42.9%. It also gave a viability, T/C [2] of 44.4%, a viability, T/C [3] of 46.4% and a viability, T/C [4] of 45.6%. The viability, T/C (second compound 0.1 µM, first compound 0.00316 µM) was 78.5%, the viability, T/C (second compound 0.1 µM, first compound 0.01 µM) was 57.1% and the viability, T/C [7] was 42.5%. For the same compound, the viability, T/C [8] was 46.8%, the viability, T/C [9] was 45.5% and the viability, T/C [10] was 48.6%. It also gave a viability, T/C (second compound 0.316 µM, first compound 0.00316 µM) of 71.9%, a viability, T/C (second compound 0.316 µM, first compound 0.01 µM) of 52.2% and a viability, T/C [13] of 40.9%. It also gave a viability, T/C [14] of 42.7%, a viability, T/C [15] of 41.8% and a viability, T/C [16] of 48.7%. It also gave a viability, T/C (second compound 1 µM, first compound 0.00316 µM) of 73%, a viability, T/C (second compound 1 µM, first compound 0.01 µM) of 48.5% and a viability, T/C [19] of 41.9%. It also gave a viability, T/C [20] of 44%, a viability, T/C [21] of 41.6% and a viability, T/C [22] of 46.8%. The viability, T/C (second compound 3.16 µM, first compound 0.00316 µM) was 71.8%, the viability, T/C (second compound 3.16 µM, first compound 0.01 µM) was 46.6% and the viability, T/C [25] was 47.5%. For the same compound, the viability, T/C [26] was 48%, the viability, T/C [27] was 47.8% and the viability, T/C [28] was 47.6%. It also gave a viability, T/C (second compound 10 µM, first compound 0.00316 µM) of 76.6%, a viability, T/C (second compound 10 µM, first compound 0.01 µM) of 47.4% and a viability, T/C [31] of 45.4%. The viability, T/C [32] was 44.3%, the viability, T/C [33] was 48.2% and the viability, T/C [34] was 48.2%.

In the case of `O=C(c1cc(Cc2n[nH]c(=O)c3ccccc23)ccc1F)N1CCN(C(=O)C2CC2)CC1` + Cc1cccc(N(C)C(=O)C2C(O)CCN2c2nc(C)cc(C(F)(F)F)c2C#N)c1, the IC50 (second compound 0.0316 µM) is reported as > 10 µM, the IC50 (second compound 0.1 µM) is reported as > 10 µM and the IC50 (second compound 0.316 µM) is reported as > 10 µM. The IC50 (second compound 1 µM) was > 10 µM, the IC50 (second compound 3.16 µM) was > 10 µM and the IC50 (second compound 10 µM) was > 10 µM. For the same compound, the viability, T/C [1] was 85.9%, the viability, T/C [2] was 99.1% and the viability, T/C [3] was 97.2%. For the same compound, the viability, T/C [4] was 94.2%, the viability, T/C [5] was 94.6% and the viability, T/C [6] was 76.3%. It also gave a viability, T/C [7] of 97.3%, a viability, T/C [8] of 104% and a viability, T/C [9] of 100%. The viability, T/C [10] was 102%, the viability, T/C [11] was 94.7% and the viability, T/C [12] was 83.1%. For the same compound, the viability, T/C [13] was 104%, the viability, T/C [14] was 91.7% and the viability, T/C [15] was 91.9%. It also gave a viability, T/C [16] of 99.6%, a viability, T/C [17] of 98% and a viability, T/C [18] of 75.9%. For the same compound, the viability, T/C [19] was 109%, the viability, T/C [20] was 84.3% and the viability, T/C [21] was 89.1%. For the same compound, the viability, T/C [22] was 94.1%, the viability, T/C [23] was 94.6% and the viability, T/C [24] was 86.1%. For the same compound, the viability, T/C [25] was 92%, the viability, T/C [26] was 89.7% and the viability, T/C [27] was 99.1%. For the same compound, the viability, T/C [28] was 89.2%, the viability, T/C [29] was 103% and the viability, T/C [30] was 82.9%. The viability, T/C [31] was 98%, the viability, T/C [32] was 109% and the viability, T/C [33] was 109%. It also gave a viability, T/C [34] of 86.1%, a viability, T/C [35] of 104% and a viability, T/C [36] of 79.9%.
